These results are taken from patent US9307761B2, “Microbial composition” (Rohm and Haas Company, priority 2011, dated 2016).

Read-outs that look alike come from different tables or passages of the source.

Common to all, as to assay type: cell-based
The subject of experiment [1] is Escherichia coli (E. coli—ATCC #10536). The experiment is described as follows: Synergy tests: high resolution MBC microtiter plate assay, 15 seconds contact, phosphate buffer containing […] dipropylene glycol. The text has this:
The concentrations and ratios may also vary under different test conditions or with different test methods.
One measure of synergy is the industrially accepted method described by Kull, F. C.; Eisman, P. C.; Sylwestrowicz, H. D. and Mayer, R. L., in Applied Microbiology 9:538-541 (1961), using the ratio determined by the formula: Qa/QA+Qb/QB=Synergy Index (“SI”) wherein: • QA=concentration of compound A (first component) in percent, acting alone, which produced an end point (MBC of Compound A). • Qa=concentration of compound A in percent, in the mixture, which produced an end point. • QB=concentration of compound B (second component) in percent, acting alone, which produced an end point (MBC of Compound B). • Qb=concentration of compound B in percent, in the mixture, which produced an end point.
When the sum of Qa/QA and Qb/QB is greater than one, antagonism is indicated. […] The lower the SI, the greater is the synergy shown by that particular mixture. The minimum biocidal concentration (MBC) of a microbicide is the lowest concentration tested under a specific set of conditions that provides complete kill of the tested microorganisms.
Synergy tests were conducted using standard microtiter plate assays with phosphate buffer containing 3.5% dipropylene glycol (DPG). In this method, a wide range of combinations of chemicals was tested by conducting high resolution MBC assays of Component (A) in the presence of various concentrations of Component (B). High resolution MBCs were determined by adding varying amounts of microbicide to one column of a microtiter plate and doing subsequent […] dilutions using an automated liquid handling system to obtain a series of closely spaced endpoints. The MBC plate was inoculated one column at a time with the test microorganism. An aliquot of the inoculated well was transferred at 15 seconds to a plate containing a neutralizing agent (D/E Neutralizing Broth), mixed and held for 5 minutes before being transferred to a growth plate containing trypticase soy broth (TSB). The TSB plate was incubated at 37° C. and read for the presence/absence of growth at 24 hours. The lowest level tested that provided complete kill (as evidenced by no growth in the microtitre plate) of the test organisms in 15 seconds is the minimum biocidal concentration (MBC).
The synergy of the combinations of the present invention was determined against a bacterium, Escherichia coli (E. coli—ATCC #10536), at a concentration of approximately 1×10^8 bacteria, per mL. This microorganism is representative of natural contaminants in many consumer and industrial applications.

For experiment [2] the test system is unchanged. Kind of experiment: Automated assessment of efficacy in model surfactant medium (2.85% sodium cocoyl glycinate and 1.85% sodium lauroamphoacetate), 15 seconds exposure, delta OD450/OD590. The conditions noted are these: for No. of replicates showing growth (out of 4) / Δ OD 450 nm = OD450 (time = 16 hours) − OD450 (time zero), Mean / Δ OD 590 nm OD590 (time = 16 hours) − OD590 (time zero), Mean: model surfactant solution, 15 s exposure. Here is the method:
Micobiocidal Activity of Actives as Per the Invention in a Model Surfactant Medium Test Methodology for Automated Assessment of Efficacy in Surfactant Base
Solutions were prepared such that the concentrations of the surfactant components and test actives were 1.1×the final desired concentration in order to allow for dilution with the bacterial inoculum in the test. The solutions were manually adjusted to […] by dropwise addition of sodium hydroxide solution, as measured with a pH meter at ambient temperature.
Tests were conducted using standard microtiter plate assays using an automated liquid handling system, 270 μl of the surfactant test solution was pipetted into each well of the microtitre plate and 30 μl of the bacterial suspension was then added. After exactly 15 seconds of bacterial exposure, a 30 μl volume of bacterial cells was withdrawn and transferred to 270 μl of D/E quench solution. After 5 minutes in the D/E quench, the optical density (OD) was measured for each plate in turn at two specific wavelengths (450 nm and 590 nm). These provide a dual check of antimicrobial activity, as the OD450 reading is specific for the yellow colour of D/E quench when bacterial growth is observed, whereas OD590 is specific for the initial purple colour of the D/E quench which is retained if no bacterial growth is observed. After the time zero OD measurements, plates were then incubated at 37° C. overnight (16 hours) before repeating the OD measurements. Delta OD values were calculated by subtracting […]. Bacterial growth is observed as art increase in OD450 and a decrease in ΔOD590. To identify antibacterially efficacious systems (those preventing appreciable bacterial growth after incubation), the following threshold changes in OD readings have been adopted: if (1). OD450 increases by less than 0.2 absorbance unit on incubation and (2). OD590 decreases by less than 0.35 unit on incubation. Conversely, where OD450 increases by more than 0.2 AU and OD590 decreases by more than 0.35 unit after incubation, corresponding to a colour shift from purple to yellow, the test system allows bacterial growth and is not deemed efficacious, four replicate measurements in the same plate have been made for each test system. The number of replicate wells showing either bacterial growth or no growth is also readily assessed by eye by following the colour change.
Dose responses for individual components and binary mixtures of actives at a fixed concentration ratio were generated by sequential dilution of liquors with further surfactant solution to obtain a series of endpoints.
In some selected cases, the combinations were also tested at the weight ratio 1:1.

Experiment [3] concerns Escherichia coli (10536 strain). Kind of experiment: 15 seconds contact kill assay of actives in water, mean bacterial survival NMBS. Conditions: for NMBS: alone, 15 seconds contact, E. coli.
Setting [4] is: E. coli 10536, at Qa and Qb, <1 synergy, 1 additivity, >1 antagonism.
The mark [5] stands for this setting: single active alone at 0.1% w/v.
The mark [6] stands for this setting: single active alone at 0.2% w/v.
[7] abbreviates: single active alone at 0.3% w/v.

`CC(C)(C)c1cccc(O)c1` [3-tert-butylphenol]: the “SI (Synergy Index = Qa/QA + Qb/QB)” value in experiment [1] (setting [4]) is given as 1.00. Besides, in experiment [1] (E. coli 10536, component alone, complete kill in 15 seconds), the “MBC of the component acting alone (QA or QB)” value is listed as 0.3 weight %.
On to `CCCCc1ccc(O)cc1` [4-butylphenol], for which, in experiment [2] (setting [5]), the “No. of replicates showing growth (out of 4)” value stood at 4; the “Δ OD 450 nm = OD450 (time = 16 hours) − OD450 (time zero), Mean” value (shortened to “Δ OD 450 nm = OD450”) is −0.61; the “Δ OD 590 nm OD590 (time = 16 hours) − OD590 (time zero), Mean” value (“Δ OD 590 nm OD590” for short) came to 0.53. Also, in experiment [2] (setting [6]), the “No. of replicates showing growth (out of 4)” value is recorded as 4; the “Δ OD 450 nm = OD450” value is reported as −0.54; the “Δ OD 590 nm OD590” value was 0.58. Also, in experiment [2] (single active alone at […] w/v), the “No. of replicates showing growth (out of 4)” value stood at 4; the “Δ OD 450 nm = OD450” value was −0.58; the “Δ OD 590 nm OD590” value was determined as 0.54.
Consider `Cc1cc(O)ccc1C(C)C` [4-isopropyl-3-methylphenol], for which, in experiment [2] (single active alone at […] w/v), the “No. of replicates showing growth (out of 4)” value amounted to 4; the “Δ OD 450 nm = OD450” value is reported as −1.53; the “Δ OD 590 nm OD590” value worked out at 0.23.
For the compound `CCCCc1ccc(O)cc1` [4-n-butyl phenol], the “MBC of phenolic compound” value in experiment [3] (phenolic compound alone, complete bacterial kill against E. coli) was 0.25 % (w/v).
On to `CCCc1ccc(O)cc1` [4-propylphenol], for which, in experiment [2] (setting [5]), the “No. of replicates showing growth (out of 4)” value worked out at 4; the “Δ OD 450 nm = OD450” value was −1.59; the “Δ OD 590 nm OD590” value is 0.34. The “No. of replicates showing growth (out of 4)” value in experiment [2] (setting [6]) stood at 4. The “No. of replicates showing growth (out of 4)” value in experiment [2] (single active alone at […] w/v) was 4. Further, in experiment [1] (setting [4]), the “SI (Synergy Index = Qa/QA + Qb/QB)” value was 1.00.
For `CCC(C)c1ccc(O)cc1` (stereo not shown) [4-sec-butylphenol], the “SI (Synergy Index = Qa/QA + Qb/QB)” value in experiment [1] (setting [4]) turned out to be 1.00.
With `Cc1ccc(C(C)C)cc1O` [5-isopropyl-2-methylphenol], in experiment [2] (setting [5]), the “No. of replicates showing growth (out of 4)” value is listed as 4; the “Δ OD 450 nm = OD450” value is −0.52; the “Δ OD 590 nm OD590” value was 0.62. In experiment [2] (setting [6]), the “No. of replicates showing growth (out of 4)” value was 4; the “Δ OD 450 nm = OD450” value is recorded as −0.52; the “Δ OD 590 nm OD590” value worked out at 0.62. Further, in experiment [2] (single active alone at […] w/v), the “No. of replicates showing growth (out of 4)” value was found to be 4. Also, the “SI (Synergy Index = Qa/QA + Qb/QB)” value in experiment [1] is 1.00.
Take `C=C(C)[C@@H]1CC=C(CO)CC1` [(S)-(−) perillyl alcohol]: in experiment [2] (setting [6]), the “No. of replicates showing growth (out of 4)” value was 4; the “Δ OD 450 nm = OD450” value was −1.44; the “Δ OD 590 nm OD590” value stood at 0.36. Moreover, in experiment [2] (setting [7]), the “No. of replicates showing growth (out of 4)” value is listed as 4; the “Δ OD 450 nm = OD450” value is listed as −1.15; the “Δ OD 590 nm OD590” value was found to be 0.56. In experiment [2] (single active alone at […] w/v), the “No. of replicates showing growth (out of 4)” value came out at 1; the “Δ OD 450 nm = OD450” value is recorded as −0.18; the “Δ OD 590 nm OD590” value stood at 0.19.
`CC1CCC(CO)C(C)C1` (stereo not shown) [dihydrofloralol, 2,4-Dimethylcyclohexylmethanol]: the MBC in experiment [2] (Escherichia coli, ATCC10536, 15 s, in 2.85% sodium cocoyl glycinate + 1.85% sodium lauroamphoacetate solution at pH 10, E. coli, read-out: MBC (minimum biocidal concentration)) was 4000 µg/mL. For the same compound, the “No. of replicates showing growth (out of 4)” value in experiment [2] (setting [6]) is on record as 4. Moreover, the “Δ OD 450 nm = OD450” value in experiment [2] (setting [6]) is −1.39. For the same compound, the “Δ OD 590 nm OD590” value in experiment [2] (setting [6]) was determined as 0.41. In addition, the NMBS turned out to be 6.18 log CFU/ml in experiment [3] (0.3% w/v), 3.97 log CFU/ml in experiment [3] (0.4% w/v) and 0.00 log CFU/ml in experiment [3] (0.5% w/v).
